IC50 data for 26 molecules are collected here from patent US10106510B2, “Substituted isoxazoles for treating cancer” (EPIZYME, INC., priority 2014, dated 2018).

Molecules are shown by their SMILES.

Chain of SMYD3 (Q9H7B4 whole entry): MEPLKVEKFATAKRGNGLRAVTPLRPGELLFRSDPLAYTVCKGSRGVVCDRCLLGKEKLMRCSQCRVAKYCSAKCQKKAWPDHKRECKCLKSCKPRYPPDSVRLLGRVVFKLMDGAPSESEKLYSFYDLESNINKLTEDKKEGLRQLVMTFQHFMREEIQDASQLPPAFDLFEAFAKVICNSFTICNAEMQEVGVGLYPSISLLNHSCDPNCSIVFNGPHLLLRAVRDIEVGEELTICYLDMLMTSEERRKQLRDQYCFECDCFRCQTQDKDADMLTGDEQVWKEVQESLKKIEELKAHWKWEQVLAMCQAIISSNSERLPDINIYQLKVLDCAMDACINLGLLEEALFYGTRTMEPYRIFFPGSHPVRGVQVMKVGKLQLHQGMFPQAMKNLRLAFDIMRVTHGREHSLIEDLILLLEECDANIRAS

For the test, the target named is SMYD3 (Homo sapiens (Human), UniProt Q9H7B4). Description: SMYD3 biochemical assay (SMYD3 enzyme assay on MEKK2 protein substrate, scintillation proximity assay). To be noted: 3H-SAM, SPA, IC50 values are an average of n = 1 to n = 50, read-out: SMYD3 Biochem IC50. The source says:
S-adenosylmethionine (SAM), S-adenosylhomocysteine (SAH), Tris, Tween20, dimethylsulfoxide (DMSO), bovine skin gelatin (BSG), and Tris(2-carboxyethyl)phosphine hydrochloride solution (TCEP) were purchased from Sigma-Aldrich at the highest level of purity possible. ^3H-SAM was purchase from American Radiolabeled Chemicals with a specific activity of 80 Ci/mmol. 384-well opaque white OptiPlates and SPA beads (Perkin Elmer, catalog # RPNQ0013) were purchased from PerkinElmer.
N-terminally GST-tagged MEKK2 (MAP3K2) protein corresponding to reference sequence AAF63496.3 was purchased from Life Technologies (catalog # PV4010). […] Protein identity was confirmed by MS/MS analysis after proteolytic digestion. The protein sequence used was:
Full-length human SMYD3 isoform 1 (BAB86333) was inserted into a modified pET21b plasmid containing a His6 tag and TEV and SUMO cleavage sites. Because two common variants of SMYD3 exist in the population, site directed mutagenesis was subsequently performed to change amino acid 13 from an asparagine to a lysine, resulting in plasmid pEPZ533.
E. coli (BL21 codonplus RIL strain, Stratagene) were transformed with plasmid pEPZ553 by mixing competent cells and plasmid DNA and incubating on ice for 30minutes followed by heat shock at 42° C. for 1 minute and cooling on ice for 2 minutes. Transformed cells were grown and selected on LB agar with 100 μg/mL ampicillin and 17 μg/mL chloramphenicol at 37° C. overnight. A single clone was used to inoculate 200 mL of LB medium with 100 μg/mL ampicillin and 17 μg/mL chloramphenicol and incubated at 37° C. on an orbital shaker at 180 rpm. Once in log growth, the culture was diluted 1:100 into 2 L of LB medium and grown until OD600 was about 0.3 after which the culture was incubated at 15° C. and 160 rpm. Once OD600 reached about 0.4, IPTG was added to a final concentration of 0.1 mM and the cells were grown overnight at 15° C. and 160 rpm. Cells were harvested by centrifugation at 8000 rpm, for 4 minutes at 4° C. and stored at −80° C. for purification.
The column was washed with Buffer B (Buffer A plus 20 mM imidazole) and His-tagged SMYD3 was eluted with Buffer C (Buffer A plus 300 mM imidazole). The His tag, TEV and SUMO cleavage sites were removed generating native SMYD3 by addition of ULP1 protein at a ratio of 1:200 (ULP1:SMYD3). Imidazole was removed by dialysis overnight in Buffer A. The dialyzed solution was applied to a second Nickel column and the native SMYD3 protein was collected from the column flow-through. The flow-through was dialyzed in Buffer D (25 mM Tris, 5% glycerol, 5 mM β-mercaptoethanol, 50 mM NaCl, pH7.8) and ULP1 was removed using a Q sepharose fast flow column.
General Procedure for SMYD3 Enzyme Assays on MEKK2 Protein Substrate
The assays were all performed in a buffer consisting of 25 mM Tris-Cl pH 8.0, 1 mM TCEP, 0.005% BSG, and 0.005% Tween 20, prepared on the day of use. Compounds in 100% DMSO (1 ul) were spotted into a 384-well white opaque OptiPlate using a Bravo automated liquid handling platform outfitted with a 384-channel head (Agilent Technologies). DMSO (1 ul) was added to Columns 11, 12, 23, 24, rows A-H for the maximum signal control and 1 ul of SAH, a known product and inhibitor of SMYD3, was added to columns 11, 12, 23, 24, rows I-P for the minimum signal control. A cocktail (40 ul) containing the SMYD3 enzyme was added by Multidrop Combi (Thermo-Fisher). The compounds were allowed to incubate with SMYD3 for 30 min at room temperature, then a cocktail (10 ul) containing SAM and MEKK2 was added to initiate the reaction (final volume=51 ul).
(In general: SPA uses beads or plates that emit light when radiolabelled molecules are held near them.)
For orientation: IC50 means the point on the concentration scale where inhibition reaches its midpoint. As for `C[C@H](N)CC(=O)N[C@H]1CC[C@H](N(CCc2ccccc2)C(=O)c2cc(C3CC3)on2)CC1` [compound 54, N-((1S,4r)-4-((S)-3-aminobutanamido)cyclohexyl)-5-cyclopropyl-N-phenethylisoxazole-3-carboxamide], the half-inhibitory concentration (IC50) was found to be 11.6 µM.

On to `NCC(O)C(=O)N[C@H]1CC[C@H](NC(=O)c2cc(C3CC3)on2)CC1` (some centres unmarked) [compound 27, N-((1r,4r)-4-(3-amino-2-hydroxypropanamido)cyclohexyl)-5-cyclopropylisoxazole-3-carboxamide], for which the half-inhibitory concentration (IC50) was found to be 0.567 µM.

For the molecule `CCc1cc(C(=O)N[C@H]2CC[C@H](NC(=O)C[C@H](C)N)C[C@H]2CC)no1` (mixture of isomers) [compound 7, Mixture of N-((1S,2R,4S)-4-((S)-3-aminobutanamido)-2-ethylcyclohexyl)-5-ethylisoxazole-3-carboxamide and N-((1R,2S,4R)-4-((S)-3-aminobutanamido)-2-ethylcyclohexyl)-5-ethylisoxazole-3-carboxamide; (1S,2R,4S) isomer depicted], the concentration for half-maximal inhibition (IC50) was 0.17 µM.

In the case of `NCCCN(C(=O)CCO)[C@H]1CC[C@H](NC(=O)c2cc(C3CC3)on2)CC1` [compound 36, N-((1r,4r)-4-(N-(3-aminopropyl)-3-hydroxypropanamido)cyclohexyl)-5-cyclopropylisoxazole-3-carboxamide], the IC50 is 7.03 µM.

Regarding `N[C@H]1C[C@H](C(=O)N[C@H]2CC[C@H](NC(=O)c3cc(C4CC4)on3)CC2)C1` [compound 22, N-((1R,4r)-4-((1r,3R)-3-aminocyclobutane-1-carboxamido)cyclohexyl)-5-cyclopropylisoxazole-3-carboxamide], the IC50 was found to be 0.269 µM.

For the molecule `C[C@@H](N)CC(=O)N[C@H]1CC[C@H](N(CCc2ccccc2)C(=O)c2cc(C3CC3)on2)CC1` [compound 41, N-((1R,4r)-4-((R)-3-aminobutanamido)cyclohexyl)-5-cyclopropyl-N-phenethylisoxazole-3-carboxamide], the IC50 was 5.71 µM.

In the case of `CN1CCN(CCC(=O)N[C@H]2CC[C@H](NC(=O)c3cc(C4CC4)on3)CC2)CC1` [compound 10, 5-cyclopropyl-N-((1r,4r)-4-(3-(4-methylpiperazin-1-yl)propanamido)cyclohexyl)isoxazole-3-carboxamide], the half-inhibitory concentration (IC50) was found to be 7.72 µM.

Regarding `NCCC(=O)N[C@H]1CC[C@H](N(CCO)C(=O)c2cc(C3CC3)on2)CC1` [compound 52, N-((1r,4r)-4-(3-aminopropanamido)cyclohexyl)-5-cyclopropyl-N-(2-hydroxyethyl)isoxazole-3-carboxamide], the IC50 is 16.8 µM.

In the case of `CN(C(=O)c1cc(C2CC2)on1)[C@H]1CC[C@@H](NC(=O)CCN)CC1` [compound 59, N-((1s,4s)-4-(3-aminopropanamido)cyclohexyl)-5-cyclopropyl-N-methylisoxazole-3-carboxamide], the half-maximal inhibitory concentration (IC50) came to 36.6 µM.

In the case of `NCCN[C@H]1CC[C@H](NC(=O)c2cc(C3CC3)on2)CC1` [compound 28, N-((1r,4r)-4-((2-aminoethyl)amino)cyclohexyl)-5-cyclopropylisoxazole-3-carboxamide], the half-maximal inhibitory concentration (IC50) was 0.853 µM.

Regarding `C[C@H](N)CC(=O)N[C@H]1CC[C@H](N(Cc2ccccc2)C(=O)c2cc(C3CC3)on2)CC1` [compound 53, N-((1S,4r)-4-((S)-3-aminobutanamido)cyclohexyl)-N-benzyl-5-cyclopropylisoxazole-3-carboxamide], the IC50 turned out to be 19.7 µM.

Turning to `NC1CCC1C(=O)N[C@H]1CC[C@H](NC(=O)c2cc(C3CC3)on2)CC1` (some centres unmarked) [Cpd. No. 3, N-((1r,4r)-4-(2-amino-cyclobutane-1-carboxamido)cyclo-hexyl)-5-cyclopropylisoxazole-3-carboxamide], the IC50 was determined as 0.545 µM.

As to `N[C@@H]1CC[C@H](C(=O)N[C@H]2CC[C@H](NC(=O)c3cc(C4CC4)on3)CC2)C1` [compound 21, N-((1S,4r)-4-((1S,3R)-3-aminocyclopentane-1-carboxamido)cyclohexyl)-5-cyclopropylisoxazole-3-carboxamide], the half-maximal inhibitory concentration (IC50) was 0.511 µM.

Take `CCc1cc(C(=O)N[C@H]2CC[C@H](N)C[C@H]2CC)no1` [compound 2, N-((1S,2R,4S)-4-amino-2-ethylcyclohexyl)-5-ethylisoxazole-3-carboxamide]: the IC50 was 2.44 µM.

As for `O=C(CCN1CCNCC1)N[C@H]1CC[C@H](NC(=O)c2cc(C3CC3)on2)CC1` [compound 17, 5-cyclopropyl-N-((1r,4r)-4-(3-(piperazin-1-yl)propanamido)cyclohexyl)isoxazole-3-carboxamide], the IC50 was 1.15 µM.

`NCCS(=O)(=O)N[C@H]1CC[C@H](NC(=O)c2cc(C3CC3)on2)CC1` [compound 29, N-((1r,4r)-4-((2-aminoethyl)sulfonamido)cyclohexyl)-5-cyclopropylisoxazole-3-carboxamide]: the IC50 is 2.9 µM.

Take `C[C@@H](N)CC(=O)N[C@H]1CC[C@H](N(C)C(=O)c2cc(C3CC3)on2)CC1` [compound 56, N-((1R,4r)-4-((R)-3-aminobutanamido)cyclohexyl)-5-cyclopropyl-N-methylisoxazole-3-carboxamide]: the IC50 amounted to 9.28 µM.

For the molecule `CNCCC(=O)N[C@H]1CC[C@H](NC(=O)c2cc(C3CC3)on2)CC1` [compound 12, 5-cyclopropyl-N-((1r,4r)-4-(3-(methylamino)propanamido)cyclohexyl) isoxazole-3-carboxamide], the IC50 was 0.867 µM.

For `NCCC(=O)N[C@H]1CC[C@H](N(Cc2ccccc2)C(=O)c2cc(C3CC3)on2)CC1` [compound 46, N-((1r,4r)-4-(3-aminopropanamido)cyclohexyl)-N-benzyl-5-cyclopropylisoxazole-3-carboxamide], the IC50 worked out at 4.34 µM.

Regarding `N[C@H]1C[C@@H](C(=O)N[C@H]2CC[C@H](NC(=O)c3cc(C4CC4)on3)CC2)C1` [compound 14, N-((1R,4r)-4-((1s,3S)-3-aminocyclobutane-1-carboxamido)cyclohexyl)-5-cyclopropylisoxazole-3-carboxamide], the IC50 was determined as 1.18 µM.

Consider `O=C(CCNCc1ccccc1)N[C@H]1CC[C@H](NC(=O)c2cc(C3CC3)on2)CC1` [compound 18, N-((1r,4r)-4-(3-(benzylamino)propanamido)cyclohexyl)-5-cyclopropylisoxazole-3-carboxamide], for which the IC50 amounted to 0.671 µM.

For the molecule `C[C@@H](N)CC(=O)N[C@H]1CC[C@@H](N(C)C(=O)c2cc(C3CC3)on2)CC1` [compound 55, N-((1S,4s)-4-((R)-3-aminobutanamido)cyclohexyl)-5-cyclopropyl-N-methylisoxazole-3-carboxamide], the IC50 came out at 24.4 µM.

Consider `CC(C)CN(C(=O)c1cc(C2CC2)on1)[C@H]1CC[C@H](NC(=O)C[C@@H](C)N)CC1` [compound 47, N-((1R,4r)-4-((R)-3-aminobutanamido)cyclohexyl)-5-cyclopropyl-N-isobutylisoxazole-3-carboxamide], for which the half-maximal inhibitory concentration (IC50) worked out at 3.12 µM.

As to `NCCC(=O)N[C@H]1CC[C@H](NC(=O)c2cc(C3CC3)on2)CC1` [compound 4, N-((1r,4r)-4-(3-aminopropanamido)cyclohexyl)-5-cyclopropylisoxazole-3-carboxamide], the concentration for half-maximal inhibition (IC50) worked out at 0.475 µM.

Regarding `NCCC(=O)N(CCCO)[C@H]1CC[C@H](NC(=O)c2cc(C3CC3)on2)CC1` [compound 38, N-((1r,4r)-4-(3-amino-N-(3-hydroxypropyl)propanamido)cyclohexyl)-5-cyclopropylisoxazole-3-carboxamide], the IC50 came out at 1.2 µM.

For the molecule `NCCC(=O)N(CCN)[C@H]1CC[C@H](NC(=O)c2cc(C3CC3)on2)CC1` [compound 35, N-((1r,4r)-4-(3-amino-N-(2-aminoethyl)propanamido)cyclohexyl)-5-cyclopropylisoxazole-3-carboxamide], the 50% inhibitory concentration (IC50) amounted to 0.883 µM.
